The results in this text go back to patent US7384636B2, “Polypeptide” (Kabushiki Kaisha Hayashibara Seibutsu Kagaku Kenkyujo, priority 2003, dated 2008).

Common to all, as to type: in vivo
Assay [1] deals with the immunized peptide. As to the kind of experiment: Titer against the immunized peptide, BALB/c mice immunized intranasally (Experiment 8). The conditions noted are these: intranasal. As to the method: (§1) All the mice were bled after one week.
(§2) As a negative control, DUP was prepared.

Assay [2] has as its system OMP. Briefly: Titer against OMP, BALB/c mice immunized intranasally (Experiment 8). The conditions noted are these: intranasal. As to the method:
as §1, §2

Assay [3] relates to the immunized peptide. As to the kind of experiment: Titer against the immunized peptide, B10 mice immunized intranasally (Experiment 7). The following applies: intranasal, with or without CT. As to the method: as §1, §2
Assay [4] concerns OMP. Briefly: Titer against OMP, B10 mice immunized intranasally (Experiment 7). The following applies: intranasal, with or without CT. How it is done: as §1, §2
Assay [5] relates to the immunized polypeptide. Briefly: Titer against the immunized peptide, BALB/c mice immunized intraperitoneally (Experiment 5). The following applies: intraperitoneal.
Source text: as §1

Assay [6] relates to OMP. Briefly: Titer against OMP, BALB/c mice immunized intraperitoneally (Experiment 5). The following applies: intraperitoneal.
Source text: as §1

With “OMP-KK-OVAp: SEQ ID NO:40, control, OMP linked by KK to OVA peptide fragment (LAVYWELLAKYLLDRVQKVAKKISQAVHAAHAEINE; OMP-KK-OVAp)”, in the assay on the immunized peptide [1], the “Titer against the immunized peptide” value was 1,589. Moreover, the “Titer against OMP” value in the assay on OMP [2] is 108.
In the case of “OMP-KK-RGD-UP: SEQ ID NO:34, RGD at N-terminal side of UP (LAVYWELLAKYLLDRVQKVAKKRGDTYEAALKQYEADL; OMP-KK-RGD-UP)”, in the assay on the immunized peptide [3], the “Titer against the immunized peptide” value is 723. Moreover, the “Titer against OMP” value in the assay with OMP [4] was found to be 16.
Consider “OMP-KK-UP-RGD: SEQ ID NO:35, RGD at C-terminal side of UP (LAVYWELLAKYLLDRVQKVAKKTYEAALKQYEADLRGD; RGD-KK-UP-RGD)”, for which the “Titer against the immunized peptide” value in the assay on the immunized peptide [3] is 9,483. In the assay on OMP [4], the “Titer against OMP” value was determined as 16.
Turning to “OMP-KK-UP: SEQ ID NO:20, KK inserted between OMP and UP (LAVYWELLAKYLLDRVQKVAKKTYEAALKQYEADL; OMP-KK-UP)”, the results for the “Titer against the immunized peptide” value (with the immunized peptide [3]; in assay [5]) were 128 and 782,685, respectively. The entries for the “Titer against OMP” value in the assay on OMP [4] and in the assay on OMP [6] were 32 and 1,731, respectively.
As for “OMP-RGD-KK-UP: SEQ ID NO:33, RGD at C-terminal side of OMP (LAVYWELLAKYLLDRVQKVARGDKKTYEAALKQYEADL; OMP-RGD-KK-UP)”, the “Titer against the immunized peptide” value with the immunized peptide [3] is given as 24,370. Further, in the assay with OMP [4], the “Titer against OMP” value was determined as 16.
As to “RGD-OMP-KK-UP: SEQ ID NO:32, RGD at N-terminal side of OMP in OMP-KK-UP (RGDLAVYWELLAKYLLDRVQKVAKKTYEAALKQYEADL; RGD-OMP-KK-UP)”, the “Titer against the immunized peptide” value in the assay with the immunized peptide [3] is 11,514. Besides, the “Titer against OMP” value with OMP [4] was 32.
For the substance “T1-KK-UP: SEQ ID NO:41, control, T1 peptide of HIV IIIB gp120 linked by KK to UP (KQIINMWQAVGKAMYAKKTYEAALKQYEADL; T1-KK-UP)”, the “Titer against the immunized peptide” value in the assay on the immunized peptide [1] turned out to be 160.
Consider “T1-RGD-KK-UP: SEQ ID NO:39, T1 T cell epitope, RGD, KK linker, UP (KQIINMWQAVGKAMYARGDKKTYEAALKQYEADL; T1-RGD-KK-UP)”, for which the “Titer against the immunized peptide” value in the assay on the immunized peptide [1] is 1,707.
In the case of “UP-KK-OMP: SEQ ID NO:21, KK inserted between UP and OMP (TYEAALKQYEADLKKLAVYWELLAKYLLDRVQKVA; UP-KK-OMP)”, the “Titer against the immunized peptide” value in assay [5] was 29,921. Further, in the assay with OMP [6], the “Titer against OMP” value is on record as 1,211.
